According to US9084770B2, “Modulation of insulin like growth factor I receptor expression in cancer” (Antisense Therapeutics, Ltd., priority 2008, dated 2015):
Where two headings read alike, the source gives them in different places.

Key:
Ptx-R PC3 cells = assay: Growth of Paclitaxel resistant Ptx-R PC3 cells with chemotherapeutic agents; assay type: cell-based, human; settings: read-out: IC50 (cell growth)
From the text: (§1) PC3 cells cultured in vitro were selected for resistance to Paclitaxel (Ptx-R).

PC3 cells [1] = assay: Growth of PC3 cells with chemotherapeutic agents; assay type: cell-based, human; settings: read-out: IC50 (cell growth)
From the text: as §1

PC3 cells [2] = assay: PC3 viable cells and apoptosis after transfection plus Paclitaxel; settings: Homo sapiens, PC-3, 72 h, read-out: reduction of viable cell count
Method: PC3 cells cultured in vitro were transfected at concentrations of IGF-IR antisense oligonucleotide (ATL1101) or control oligodeoxynucleotide (ISIS 306064) ranging from 12.5 nM to 50 nM or oligofectamine control once per day on two sequential days. After the 2nd transfection, the PC3 cells were treated with concentrations of between 0.1 to 50 nM Paclitaxel. The number of viable cells remaining were determined 72 hours after Paclitaxel treatment.

human IGF-IR mRNA = assay: Antisense inhibition of human IGF-IR mRNA levels by quantitative RT-PCR (Table 1); assay type: cell-based; set-up: %INHIB (human IGF-IR mRNA levels): concentration or dose not given beside the values; settings: quantitative RT-PCR; averages from 3 experiments
[3] = Homo sapiens, PC-3, standard culture conditions

Row | Compound | IC50 (Ptx-R PC3 cells; [3]) [nM] | IC50 (PC3 cells [1]; [3]) [nM] | other results
1 | O=C1c2c(O)ccc(O)c2C(=O)c2c(NCCNCCO)ccc(NCCNCCO)c21 [Mitoxantrone] | 376 | 8.8 | 
2 | N.N.[Cl][Pt][Cl] [Cisplatin] |  |  | IC50 (Ptx-R PC3 cells; standard culture conditions): 24.7 nM; IC50 (PC3 cells [1]; standard culture conditions): 10 nM
3 | CC(=O)O[C@H]1C(=O)[C@@]2(C)[C@H]([C@H](OC(=O)c3ccccc3)[C@]3(O)C[C@H](OC(=O)[C@H](O)[C@@H](NC(=O)c4ccccc4)c4ccccc4)C(C)=C1C3(C)C)[C@]1(OC(C)=O)CO[C@@H]1C[C@@H]2O [Paclitaxel] | 50.3 | 2.56 | cytotoxicity at 0.0001 µM (PC3 cells [2]): ~5%
4 | CC(=O)O[C@@]12CO[C@@H]1C[C@H](O)[C@@]1(C)C(=O)[C@H](O)C3=C(C)[C@@H](OC(=O)[C@H](O)[C@@H](NC(=O)OC(C)(C)C)c4ccccc4)C[C@@](O)([C@@H](OC(=O)c4ccccc4)[C@H]21)C3(C)C [Docataxel] | 10 | 0.827 | 
5 | 323746 (antisense TTCTCAGCCTCGTGGTTGCA; listed as DNA, chemistry not fully specified) [compound 323746] |  |  | %INHIB (human IGF-IR mRNA levels) (human IGF-IR mRNA): 62%
